Test systems include CCRF-CEM leukemia; DU-145 prostate; HCC-2998 colon; HCT-15 colon; KM12 colon; MDA-MB-231 breast; MOLT-4 leukemia; NCI-H226 lung; NCI-H460 lung; OVCAR-4 ovarian.
What all share (assay): NCI-60 cell line screen, 48 h

Each structure is given as a SMILES string. Values joined by “and” are separate entries in the source; they are usually repeats but may differ in a detail not shown here. Equal entries are not always repeated.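 In this assay, cells in 96-well plates receive the compound at five concentrations for 48 hours. Endpoints are linearly interpolated between the surrounding concentrations. Abbreviation: GI50, concentration required for 50% inhibition of growth. At the TGI there is no net growth.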

As for `O=C(Nc1ccc(F)cc1)Nc1ccc(Br)c(C(F)(F)F)c1`, the GI50 with CCRF-CEM leukemia is 2.27 µM; in the test with DU-145 prostate, 3.27 µM; with HCC-2998 colon, 2.38 µM; in the test on HCT-15 colon, 2.35 µM; with KM12 colon, 1.96 µM; in the test on MDA-MB-231 breast it was 2.18 µM. For the same compound, the GI50 is 1.95 µM with MOLT-4 leukemia, 2.73 µM in the test with NCI-H226 lung, 2.53 µM in the test on NCI-H460 lung and 2.13 µM in the test with OVCAR-4 ovarian. Besides, the TGI was 6.53 µM with CCRF-CEM leukemia; 13.4 µM in the test with DU-145 prostate; 7.73 µM in the test on HCC-2998 colon; 10.8 µM in the test on HCT-15 colon; 7.92 µM in the test on KM12 colon; 5.33 µM in the test with MDA-MB-231 breast. The TGI worked out at 5.53 µM in the test on MOLT-4 leukemia, 11.1 µM in the test with NCI-H226 lung, 10.4 µM with NCI-H460 lung and 9.75 µM in the test on OVCAR-4 ovarian.
Regarding `O=C(CI)Nc1ccc(O)c2ccccc12`, the GI50 in the test on DU-145 prostate is 1.88 µM; with HCC-2998 colon, 2.13 µM; with HCT-15 colon, 0.817 µM; with KM12 colon, 1.9 µM; with MDA-MB-231 breast, 2.59 µM; with MOLT-4 leukemia it was 0.846 µM. For the same compound, the GI50 in the test on NCI-H226 lung was 1.67 µM; in the test with NCI-H460 lung, 2.13 µM; with OVCAR-4 ovarian, 0.575 µM. Also, the TGI with DU-145 prostate was found to be 3.87 µM; in the test with HCC-2998 colon, 4.91 µM; in the test with HCT-15 colon it was 2.48 µM; with KM12 colon it was 3.69 µM; with MDA-MB-231 breast, 6.69 µM; with MOLT-4 leukemia, 8.18 µM. The TGI in the test on NCI-H226 lung is 5.61 µM; with NCI-H460 lung, 4.71 µM; in the test on OVCAR-4 ovarian, 1.23 µM.
For `C[n+]1c2ccccc2nc2ccccc21`, the GI50 was 0.683 µM in the test on CCRF-CEM leukemia; 1.57 µM in the test with DU-145 prostate; 2.11 µM with HCC-2998 colon; 2.07 µM in the test with HCT-15 colon; 2.93 µM in the test with KM12 colon; 0.359 µM in the test on MDA-MB-231 breast. Also, the GI50 with MOLT-4 leukemia is 4.19 µM; in the test with NCI-H226 lung, 2.63 µM; with NCI-H460 lung it was 2.33 µM; with OVCAR-4 ovarian, 0.447 µM. Further, the TGI was greater than 28.7 µM in the test with CCRF-CEM leukemia; 3.12 µM with DU-145 prostate; 7.22 µM in the test with HCC-2998 colon; 10.8 µM in the test on HCT-15 colon; 12.2 µM with KM12 colon; 2.12 µM in the test on MDA-MB-231 breast. Moreover, the TGI in the test with MOLT-4 leukemia is greater than 23.5 µM; in the test on NCI-H226 lung it was 9.47 µM; in the test on NCI-H460 lung it was 11.2 µM; in the test on OVCAR-4 ovarian, 1.75 µM.
For `CCC1(OC(=O)CN)C(=O)OCc2c1cc1n(c2=O)Cc2cc3ccccc3nc2-1` (stereo not given), the GI50 is 0.00116 µM with CCRF-CEM leukemia; 0.00536 µM in the test on DU-145 prostate; 0.175 µM in the test on HCC-2998 colon; 0.192 µM with HCT-15 colon; 0.022 µM with KM12 colon; 0.652 µM with MDA-MB-231 breast. Also, the GI50 is 0.00396 µM in the test on MOLT-4 leukemia, 0.0151 µM in the test on NCI-H226 lung, 0.00329 µM in the test on NCI-H460 lung and 0.256 µM in the test with OVCAR-4 ovarian. The TGI in the test with CCRF-CEM leukemia was 0.534 µM and 0.677 µM; in the test on DU-145 prostate, 0.551 µM; in the test with HCC-2998 colon, 1.08 µM; in the test with HCT-15 colon it was greater than 20.3 µM; in the test with KM12 colon, 0.754 µM and 4.01 µM; in the test with MDA-MB-231 breast, 6.04 µM. In addition, the TGI in the test with MOLT-4 leukemia was 0.0305 µM; in the test with NCI-H226 lung, 0.15 µM and 0.0638 µM; with OVCAR-4 ovarian, 0.994 µM and 4.55 µM.
For the compound `CC(=O)NC(CSC1=C2NC(=O)\C=C/C=C/C=C\C(C)C(O)CC(=O)/C(C)=C\CC(O)/C=C/C(C)C(O)C(C)C=C(C)C(=O)c3c(O)c(C)cc(c3C1=O)C2=O)C(=O)O` (stereo not given), the TGI is 78.9 µM with CCRF-CEM leukemia; greater than 100 µM with DU-145 prostate; greater than 100 µM with HCT-15 colon; greater than 100 µM in the test with KM12 colon; 82.7 µM with MDA-MB-231 breast; greater than 100 µM with MOLT-4 leukemia. Also, the TGI with NCI-H226 lung, in the test on NCI-H460 lung and in the test on OVCAR-4 ovarian was greater than 100 µM in each case.
As to `O=C1C=Cc2c1ccc1ccccc21`, the GI50 with CCRF-CEM leukemia is 14.8 µM; in the test with DU-145 prostate it was 48.8 µM; in the test with HCT-15 colon it was 24.1 µM; in the test on KM12 colon, 24.5 µM; in the test with MDA-MB-231 breast, 15 µM; with NCI-H226 lung, 16.6 µM. For the same compound, the GI50 in the test on NCI-H460 lung was 35.7 µM; in the test with OVCAR-4 ovarian it was 75.2 µM. Further, the TGI with CCRF-CEM leukemia was 43.9 µM; in the test on DU-145 prostate, greater than 100 µM; in the test on HCT-15 colon, greater than 100 µM; in the test on KM12 colon, 77.5 µM; with MDA-MB-231 breast, 53.6 µM; in the test with NCI-H226 lung, greater than 100 µM. Also, the TGI in the test on NCI-H460 lung and in the test with OVCAR-4 ovarian was greater than 100 µM each time.
Regarding `O=C1CNC(=O)c2[nH]cnc2N1`, the TGI with CCRF-CEM leukemia, with HCC-2998 colon, with HCT-15 colon, with KM12 colon, in the test on MOLT-4 leukemia and in the test on NCI-H226 lung was greater than 100 µM throughout. Further, the TGI with NCI-H460 lung and with OVCAR-4 ovarian was greater than 100 µM throughout.
Take `COC(=O)C1CC(OC(C)=O)C=C2C(=O)CCC21` (stereo not given): the TGI in the test on CCRF-CEM leukemia is 34.4 µM; in the test with HCC-2998 colon it was greater than 100 µM; in the test with HCT-15 colon, 30.9 µM; in the test on KM12 colon, 31.6 µM; in the test on MOLT-4 leukemia it was 40 µM; in the test with NCI-H226 lung, greater than 100 µM. For the same compound, the TGI amounted to 35.2 µM with NCI-H460 lung and 45.1 µM with OVCAR-4 ovarian.
Take `N#CC(C#N)=Cc1ccc(CP(=O)(O)O)cc1`: the TGI in the test on CCRF-CEM leukemia, in the test on HCC-2998 colon, with HCT-15 colon, in the test on KM12 colon, in the test with MOLT-4 leukemia and in the test on NCI-H226 lung was greater than 100 µM throughout. Further, the TGI in the test with NCI-H460 lung and in the test on OVCAR-4 ovarian was greater than 100 µM in each case.
Take `Cc1ccc(S(=O)(=O)C2=c3nc4ccccc4cc3=C3C(=O)c4ccccc4C(=O)C32)cc1` (stereo not given): the TGI with CCRF-CEM leukemia, with HCC-2998 colon, in the test with HCT-15 colon, in the test on KM12 colon, with MOLT-4 leukemia and in the test on NCI-H226 lung was greater than 100 µM in each case. The TGI with NCI-H460 lung and in the test with OVCAR-4 ovarian was greater than 100 µM in each case.
As to `O=C1C(=O)c2ccccc2C(O)=C1CCCc1ccc(C2CCCCC2)cc1`, the GI50 with DU-145 prostate was 5.17 µM; in the test with HCC-2998 colon, 11.6 µM; in the test with HCT-15 colon, 3 µM; with KM12 colon it was 4.16 µM; with MDA-MB-231 breast, 10.4 µM; in the test with MOLT-4 leukemia it was 4.24 µM. In addition, the GI50 is 5.42 µM with NCI-H226 lung, 2.78 µM with NCI-H460 lung and 3.23 µM in the test with OVCAR-4 ovarian. The TGI was 36.5 µM with DU-145 prostate; 61.4 µM in the test on HCC-2998 colon; 24.6 µM in the test on HCT-15 colon; 17.9 µM with KM12 colon; 31 µM in the test with MDA-MB-231 breast; greater than 100 µM in the test on MOLT-4 leukemia. Also, the TGI with NCI-H226 lung is 27.6 µM; with NCI-H460 lung, 10.3 µM; in the test with OVCAR-4 ovarian, greater than 100 µM.
Consider `CCOC(=O)C(Cc1ccccc1)NC(=O)c1[nH]cnc1/N=N/N(C)C` (stereo not given), for which the TGI with CCRF-CEM leukemia, in the test with HCC-2998 colon, in the test on HCT-15 colon, in the test with KM12 colon, with MOLT-4 leukemia and in the test on NCI-H226 lung was greater than 100 µM throughout. The TGI in the test on NCI-H460 lung and in the test with OVCAR-4 ovarian was greater than 100 µM throughout.
In the case of `O=c1oc2cc(OC/C(=N/O)c3ccc(F)cc3)ccc2c2ccccc12`, the GI50 is 23 µM with CCRF-CEM leukemia; 18.5 µM in the test with DU-145 prostate; 17 µM with HCC-2998 colon; 20.7 µM with HCT-15 colon; 21.2 µM with KM12 colon; 14.8 µM in the test with MDA-MB-231 breast. For the same compound, the GI50 in the test on MOLT-4 leukemia is 16.7 µM; in the test with NCI-H226 lung it was 22.3 µM; in the test with NCI-H460 lung, 16.9 µM. The TGI is greater than 100 µM in the test on CCRF-CEM leukemia; 34.7 µM in the test with DU-145 prostate; 30.7 µM with HCC-2998 colon; 42.4 µM with HCT-15 colon; 53.5 µM with KM12 colon; 30.3 µM in the test with MDA-MB-231 breast. Besides, the TGI with MOLT-4 leukemia stood at 42.7 µM; in the test on NCI-H226 lung, 40.6 µM; in the test on NCI-H460 lung, 35.2 µM.
Take `CCCCc1c2cnccc2c(CCCC)c2c1[nH]c1ccccc12`: the TGI in the test on CCRF-CEM leukemia was 99 µM; in the test with HCC-2998 colon it was greater than 100 µM; in the test on HCT-15 colon, 46 µM; in the test with KM12 colon it was 24.7 µM; with MOLT-4 leukemia, 23.7 µM; in the test with NCI-H226 lung, 34 µM. Also, the TGI was greater than 100 µM with NCI-H460 lung and 29.8 µM with OVCAR-4 ovarian.
Take `Cc1ccc(S(=O)(=O)c2ccc(C)cc2[N+](=O)[O-])cc1`: the TGI in the test with CCRF-CEM leukemia, in the test with HCC-2998 colon, with HCT-15 colon, in the test on KM12 colon, in the test on MOLT-4 leukemia and in the test with NCI-H226 lung was greater than 100 µM in each case. Besides, the TGI in the test on NCI-H460 lung and in the test on OVCAR-4 ovarian was greater than 100 µM each time.
In the case of `CC1=NOC(=O)/C1=C/c1ccc([N+](=O)[O-])cc1`, the TGI with CCRF-CEM leukemia, in the test with HCC-2998 colon, in the test with HCT-15 colon, in the test on KM12 colon, in the test with MOLT-4 leukemia and in the test with NCI-H226 lung was greater than 100 µM each time. In addition, the TGI in the test on NCI-H460 lung and in the test on OVCAR-4 ovarian was greater than 100 µM each time.
Turning to `COc1cc(NS(C)(=O)=O)ccc1NCc1c2ccccc2nc2ccccc12`, the TGI in the test on CCRF-CEM leukemia is 33.5 µM; with HCC-2998 colon, greater than 100 µM; with HCT-15 colon it was greater than 100 µM; in the test on KM12 colon, greater than 100 µM; in the test on MOLT-4 leukemia, 35 µM; in the test on NCI-H226 lung, greater than 100 µM. Also, the TGI was greater than 100 µM with NCI-H460 lung and 22.3 µM with OVCAR-4 ovarian.

The record behind these values is PubChem BioAssay (NCI).
